Results taken from patent US9278968B2, “Imidazopyridine compounds” (ASTELLAS PHARMA INC., priority 2012, dated 2016).

Experiments:
[1] = tested on: average blood pressure of rats; assay: Measurement of antihypertensive effect in vivo; parameters: species or system Wistar male rats; details: oral
Description: As the animals, Wistar male rats, 13- to 18-week (Japan SLC, Inc.) were used. Three days prior to administration of a test compound, a cannula (PE-50, Becton, Dickinson and Company, Japan) filled with heparin physiological saline (200 U/mL, Ajinomoto Pharmaceuticals Co., Ltd.) was inserted and placed in the common carotid artery under anesthesia with intraperitoneal administration of 60 mg/kg of pentobarbital. The other end of the cannula was subcutaneously exposed to the back of the neck. After the recovery period, the placed cannula was connected to a pressure transducer (Life Kit DTS DX-100, Nihon Kohden Corporation) to record the blood pressure waveform through an amplifier (AP-641G, Nihon Kohden Co., Ltd.) and PowerLab (ML870 PowerLab8/30 (AD Instruments Japan)). The heart rate was calculated using a heart rate measuring unit (AT-601G, Nihon Kohden Co., Ltd.). After stabilization of the blood pressure, the test compound was orally administered one time to measure the blood pressure and the heart rate over time. The test compounds were administered by appropriately adding N,N-dimethylformamide, Polyethylene Glycol 400, TWEEN 80, a 0.5% aqueous methylcellulose solution, and a 0.5 M aqueous sodium hydrogen carbonate solution, and 0.1 M hydrochloric acid therein according to the compounds and dissolving it.
Further, the administration doses in Tables represent the administration doses for oral administration, and for example, 3 means 3 mg/kg. Further, the blood pressure reduction represents a maximum change value from the value before administration in the average blood pressure, and for example, −63 indicates reduction by 63 mmHg.

[2] = biological target: human purified sGC (heterodimer of sGCα1 and sGCβ1) (Homo sapiens (Human), UniProt Q02108+Q02153); assay: sGC activation test (cGMP produced, HTRF); assay type: biochemical; details: maximum activity of Preparation Example 200 compound (maximum 100 μM) taken as 100%; with SNP; read-out: EC50 (concentration giving 50% of maximum activity)
human purified sGC (heterodimer of sGCα1 and sGCβ1), sequence (Q02108 whole entry): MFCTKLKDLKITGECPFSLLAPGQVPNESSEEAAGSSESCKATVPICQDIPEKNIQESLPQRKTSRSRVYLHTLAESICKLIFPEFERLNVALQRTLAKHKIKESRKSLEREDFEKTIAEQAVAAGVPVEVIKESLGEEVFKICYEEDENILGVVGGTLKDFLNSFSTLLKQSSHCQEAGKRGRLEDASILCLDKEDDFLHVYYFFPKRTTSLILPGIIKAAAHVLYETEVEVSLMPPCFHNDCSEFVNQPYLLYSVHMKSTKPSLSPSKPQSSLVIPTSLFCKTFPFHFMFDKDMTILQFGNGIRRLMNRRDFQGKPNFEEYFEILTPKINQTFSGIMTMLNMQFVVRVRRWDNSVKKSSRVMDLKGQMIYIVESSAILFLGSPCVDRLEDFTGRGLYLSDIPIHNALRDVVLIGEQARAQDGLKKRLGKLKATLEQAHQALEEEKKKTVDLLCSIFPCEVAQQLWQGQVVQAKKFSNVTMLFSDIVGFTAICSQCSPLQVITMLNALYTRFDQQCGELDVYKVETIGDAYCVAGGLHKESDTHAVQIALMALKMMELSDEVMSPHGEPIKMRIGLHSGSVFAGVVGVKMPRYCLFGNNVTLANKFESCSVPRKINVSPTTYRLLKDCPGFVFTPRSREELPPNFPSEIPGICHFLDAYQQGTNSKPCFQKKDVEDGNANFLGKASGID
human purified sGC (heterodimer of sGCα1 and sGCβ1), sequence (Q02153 whole entry): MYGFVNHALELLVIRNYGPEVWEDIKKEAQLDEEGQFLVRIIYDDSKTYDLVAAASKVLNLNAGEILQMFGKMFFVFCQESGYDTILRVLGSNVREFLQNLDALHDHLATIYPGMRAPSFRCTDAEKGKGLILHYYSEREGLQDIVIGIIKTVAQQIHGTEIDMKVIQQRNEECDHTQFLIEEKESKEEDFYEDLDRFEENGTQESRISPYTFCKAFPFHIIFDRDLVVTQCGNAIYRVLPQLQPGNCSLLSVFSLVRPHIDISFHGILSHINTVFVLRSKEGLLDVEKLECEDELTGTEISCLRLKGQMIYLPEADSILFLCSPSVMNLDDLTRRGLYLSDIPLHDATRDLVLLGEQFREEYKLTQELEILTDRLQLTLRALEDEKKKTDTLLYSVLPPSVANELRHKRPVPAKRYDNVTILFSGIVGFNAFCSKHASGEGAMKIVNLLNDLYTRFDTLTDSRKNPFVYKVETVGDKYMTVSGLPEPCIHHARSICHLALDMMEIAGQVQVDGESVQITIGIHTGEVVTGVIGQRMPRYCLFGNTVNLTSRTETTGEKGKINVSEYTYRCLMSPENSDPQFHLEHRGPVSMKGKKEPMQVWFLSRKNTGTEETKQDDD
Description: The activity of sGC was evaluated by measuring the amount of cGMP produced by human purified sGC.
Using an sGCα 1 gene (NCBI accession No. BC028384.2) and an sGCβ1 gene (NCBI accession No. BC047620.1), an N-terminal FLAG tag-fused sGCα1 and an sGCβ1 expression baculovirus were prepared. These viruses were transfected into insect cells Sf9 (Cat. No. 11496-015, Gibco) to express a protein. From the cell lysates of the insect cells, heterodimers of the N-terminal FLAG tag-fused sGCα1 and sGCβ1 were purified with an M2 Affinity Gel (Sigma-Aldrich, Inc.) to obtain a human sGC.
An Example compound was dissolved in DMSO and diluted 20-fold with ultrapure water. 2 μL of the diluted Example compound solution (maximum concentration of 100 μM), 2 μL of a substrate solution [0.5 μM triethanolamine buffer solution, 0.03 μM dithiothreitol, 0.01 μM GTP, 0.04 μM MgCl2, and 0.03 μM sodium nitroprusside (SNP)], and 6 μL of a human enzyme suspension were added to 384-well plates (manufactured by Greiner Bio-One), and incubated at room temperature for one hour. The measurement of the amount of cGMP was carried out, using an HTRF reagent (Cisbio).
The sGC activation action of the Example compound was calculated as an Example compound concentration which gives 50% of a maximum activity (EC50), in which the maximum activity by the addition of a compound shown in Preparation Example 200, 8-(cyclohexylmethoxy)-N-[(1R)-2-hydroxy-1-phenylethyl]-2-methylimidazo[1,2-a]pyridine-3-carboxamide hydrochloride (maximum 100 μM), is taken as 100%. Further, the maximum activity of sGC with the addition of 8-(cyclohexylmethoxy)-N-[(1R)-2-hydroxy-1-phenylethyl]-2-methylimidazo[1,2-a]pyridine-3-carboxamide hydrochloride is 10-fold or more relative to the sGC activation without the addition of the compound, and it is recognized that the compound has a good sGC activating action. […] The test results of some Example compounds that are the compounds of the formula (I) of the present invention are shown below. Further, in Tables, Ex. represents Example number.

[3] = tested on: hind limb blood flow in rats anesthetized with pentobarbital; assay: Blood flow increasing action in vivo (hind limb blood flow, anesthetized rats); parameters: species or system Wistar male rats; details: oral, 2 hours after administration, effective when blood flow rate 130% or more of solvent group
Description: The hind limb blood flow increasing action in rats anesthetized with pentobarbital was confirmed by the following test method.
Wistar male rats, 11- to 14-week (Japan SLC, Inc.) were used. An administration liquid was prepared by adding N,N-dimethyl formamide, Polyethylene Glycol 400, TWEEN 80, a 0.5% methyl cellulose aqueous solution, a 0.5 M aqueous sodium hydrogen carbonate solution, and 0.1 M hydrochloric acid to the test compound and dissolving the Example compound in an appropriate manner depending on the compound. The prepared administration liquid was orally administered, and 2 hours later, the hind limb blood flow increasing action was evaluated under anesthesia with intraperitoneally administration of 60 mg/kg of pentobarbital The hind limb blood flow was measured using a laser blood flow imaging device (PIM II Integral). By taking the average blood flow rate of a group with the administration of a solvent as 100%, the compound was evaluated to be effective when the blood flow rate was 130% or more by the administration of the compound.

SMILES | EC50 [2] | Blood pressure reduction (maximum change from value before administration in average blood pressure) ([1]; single dose 3 mg/kg) | hind limb blood flow increasing action ([3]; 3 mg/kg) | hind limb blood flow increasing action ([3]; 0.3 mg/kg) | also measured
Cc1ncc(C(C)(CO)NC(=O)c2c(C)nc3c(OCc4c(F)cccc4F)cccn23)s1 (stereo not shown) [Example 2, 8-[(2,6-difluorobenzyl)oxy]-N-[1-hydroxy-2-(2-methyl-1,3-thiazol-5-yl)propan-2-yl]-2-methylimidazo[1,2-a]pyridine-3-carboxamide] | 2600 nM | −56 mmHg | exhibited a blood flow increasing action | – | –
CCn1nnc(C(C)(CO)NC(=O)c2c(C)nc3c(OCc4c(F)cccc4F)cccn23)n1 (stereo not shown) [Example 8, 8-[(2,6-difluorobenzyl)oxy]-N-[2-(2-ethyl-2H-tetrazol-5-yl)-1-hydroxypropan-2-yl]-2-methylimidazo[1,2-a]pyridine-3-carboxamide] | 5700 nM | −29 mmHg | exhibited a blood flow increasing action | – | –
Cc1nc2c(OCc3c(F)cccc3F)cccn2c1C(=O)N[C@@](C)(CO)c1ccccc1 [Example 9] | 720 nM | −63 mmHg | – | exhibited a blood flow increasing action | –
Cc1nc2c(OCc3c(F)cccc3F)cccn2c1C(=O)NC(CO)(CO)c1ccc(F)cc1 [Example 54] | 2700 nM | −56 mmHg | exhibited a blood flow increasing action | – | –
Cc1nc2c(OCc3c(F)cccc3F)cccn2c1C(=O)NC(C)(CO)c1nnn(C2CC2)n1 (stereo not shown) [Example 76] | 5800 nM | – | exhibited a blood flow increasing action | – | –
Cc1cnc([C@](C)(CO)NC(=O)c2c(C)nc3c(OCc4c(F)cccc4F)cccn23)s1 [Example 77] | 1300 nM | – | – | exhibited a blood flow increasing action | –
CCn1nnc([C@H](CO)NC(=O)c2c(C)nc3c(OCc4c(F)cccc4F)cccn23)n1 [Example 81] | 16000 nM | – | – | – | hind limb blood flow increasing action ([3]; 1 mg/kg): exhibited a blood flow increasing action
Cc1nnc([C@](C)(CO)NC(=O)c2c(C)nc3c(OCc4c(F)cccc4F)cccn23)s1 [Example 118, 8-[(2,6-difluorobenzyl)oxy]-N-[(2S)-1-hydroxy-2-(5-methyl-1,3,4-thiadiazol-2-yl)propan-2-yl]-2-methylimidazo[1,2-a]pyridine-3-carboxamide] | 1100 nM | −61 mmHg | – | – | hind limb blood flow increasing action ([3]; 1 mg/kg): exhibited a blood flow increasing action

More lines, main results first:

EC50 [2] | SMILES | Blood pressure reduction (maximum change from value before administration in average blood pressure) ([1]; single dose 3 mg/kg) | hind limb blood flow increasing action ([3]; 3 mg/kg) | hind limb blood flow increasing action ([3]; 0.3 mg/kg) | also measured
2700 nM | Cc1nc2c(OCc3c(F)cccc3F)cccn2c1C(=O)N[C@@H](CO)c1nnn(C(F)F)n1 [Example 83] | – | – | – | hind limb blood flow increasing action ([3]; 1 mg/kg): exhibited a blood flow increasing action
1500 nM | Cc1nc2c(OCc3c(F)cccc3F)cccn2c1C(=O)NC(C)(CO)c1nnc(C(F)(F)F)o1 (stereo not shown) [Example 91] | – | – | exhibited a blood flow increasing action | –
3400 nM | Cc1nc2c(OCc3c(F)cccc3F)cccn2c1C(=O)NC(CO)(CO)c1nnn(C(F)F)n1 [Example 96] | – | – | exhibited a blood flow increasing action | Blood pressure reduction (maximum change from value before administration in average blood pressure) ([1]; single dose 1 mg/kg): −21 mmHg
730 nM | Cc1nc2c(OCc3c(F)cccc3F)cccn2c1C(=O)N[C@@](C)(CO)c1nnn(C(F)F)n1 [Example 114, 8-[(2,6-difluorobenzyl)oxy]-N-{(2R)-2-[2-(difluoromethyl)-2H-tetrazol-5-yl]-1-hydroxypropan-2-yl}-2-methylimidazo[1,2-a]pyridine-3-carboxamide] | – | – | – | Blood pressure reduction (maximum change from value before administration in average blood pressure) ([1]; single dose 0.3 mg/kg): −35 mmHg; hind limb blood flow increasing action ([3]; 0.03 mg/kg): exhibited a blood flow increasing action
5500 nM | Cc1nnc([C@](C)(CO)NC(=O)c2c(C)nc3c(OCc4c(F)cccc4F)cccn23)o1 [Example 117, 8-[(2,6-difluorobenzyl)oxy]-N-[(2S)-1-hydroxy-2-(5-methyl-1,3,4-oxadiazol-2-yl)propan-2-yl]-2-methylimidazo[1,2-a]pyridine-3-carboxamide] | – | – | – | Blood pressure reduction (maximum change from value before administration in average blood pressure) ([1]; single dose 1 mg/kg): −35 mmHg; hind limb blood flow increasing action ([3]; 0.1 mg/kg): exhibited a blood flow increasing action
